According to patent US5559144A, “Furyl and thienyl alkynyl-N-hydroxy urea derivatives” (Abbott Laboratories, priority 1995, dated 1996):

The compounds below were run against T1, 5-Lipoxygenase from RBL-1 20,000xg Supernatant (Rattus norvegicus, UniProt P12527) (assay: 5-lipoxygenase inhibitory activity, 20,000 xg supernatant from homogenized RBL-1 cells). Details: radiolabeled arachidonic acid, triplicate.
T1 construct: 20,000 xg supernatant from 1.5 million homogenized RBL-1 cells; endogenous in cells; host or cells: RBL-1 cells (20,000 xg supernatant of homogenate)
T1 sequence (P12527 1-673): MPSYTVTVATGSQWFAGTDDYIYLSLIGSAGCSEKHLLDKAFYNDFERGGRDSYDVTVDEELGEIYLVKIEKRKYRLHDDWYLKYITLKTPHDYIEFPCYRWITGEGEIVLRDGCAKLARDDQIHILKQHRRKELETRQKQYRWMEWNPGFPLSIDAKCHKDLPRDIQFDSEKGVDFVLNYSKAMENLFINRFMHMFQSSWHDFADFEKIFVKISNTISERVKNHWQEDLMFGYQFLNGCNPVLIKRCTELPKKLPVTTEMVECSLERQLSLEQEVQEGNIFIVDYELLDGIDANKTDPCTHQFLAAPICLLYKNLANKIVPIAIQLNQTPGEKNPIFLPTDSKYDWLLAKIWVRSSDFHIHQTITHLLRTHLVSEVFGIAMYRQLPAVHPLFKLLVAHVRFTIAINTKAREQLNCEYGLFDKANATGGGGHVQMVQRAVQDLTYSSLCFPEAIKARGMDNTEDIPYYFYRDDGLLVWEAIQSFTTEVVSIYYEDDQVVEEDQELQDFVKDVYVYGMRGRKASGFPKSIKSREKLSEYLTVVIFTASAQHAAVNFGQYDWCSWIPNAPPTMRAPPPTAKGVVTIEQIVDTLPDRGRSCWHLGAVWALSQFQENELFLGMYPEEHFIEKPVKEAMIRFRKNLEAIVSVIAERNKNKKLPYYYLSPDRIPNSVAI
Assay type: biochemical
Experimental: Assays to determine 5-lipoxygenase inhibitory activity of representative compounds of the present invention were performed in […] incubations containing the 20,000 xg supernatant from 1.5 million homogenized RBL-1 cells and various concentrations of the test compound. Reactions were initiated by addition of radiolabeled arachidonic acid and terminated by acidification and ether extraction. Reaction products were separated from nonconverted substrate by thin layer chromatography and measured by liquid scintillation spectroscopy. All incubations are performed in triplicate. Inhibition of 5-lipoxygenase activity was calculated as the ratio of the amount of product formed in the presence and absence of inhibitor. […] (Dyer, R. D.; Haviv, F.; Hanel, A. M.; Bornemier, D. A.; Carter, G. W. Fed. Proc., Fed. Am. Soc. Exp. Biol. 1984, 43, 1462A).

Going from CCc1ccc(C#CC(C)N(O)C(N)=O)cc1 (stereo not drawn) [Example 24, N-Hydroxy-N-[4-(4-ethylphenyl)-3-butyn-2-yl]urea] to Cc1ccc(C#CC(C)N(O)C(N)=O)cc1 (stereo not drawn) [Example 28, N-Hydroxy-N-[4-(4-methylphenyl)-3-butyn-2-yl]urea], the IC50 rises from 300 nM to 1400 nM (4.7-fold). The first is the more potent here.

CNC(=O)N(O)C(C)C#CCCc1ccccc1 (stereo not drawn) [Example 27, N-Hydroxy-N-(6-phenyl-3-hexyn-2-yl)-N'-methylurea] and CC(C#CCCc1ccccc1)N(O)C(N)=O (stereo not drawn) [Example 26, N-Hydroxy-N-(6-phenyl-3-hexyn-2-yl)urea] are within 1.5-fold of each other in IC50: 700 nM for the first, 900 nM for the second.

CC(C#Cc1ccc(Oc2ccccc2)o1)N(O)C(N)=O (stereo not drawn) [Example 58, N-hydroxy-N-[4-(5-phenoxy-2-furyl)-3-butyn-2-yl]urea] and CC(C#Cc1ccc(Sc2ccccc2)o1)N(O)C(N)=O (stereo not drawn) [Example 59, N-hydroxy-N-[4-(5-thiophenoxy-2-furyl)-3-butyn-2-yl]urea] are the same in IC50: 200 nM for the first, 200 nM for the second.

Compared with CC(C#Cc1cccc(Oc2ccccn2)c1)N(O)C(N)=O (stereo not drawn) [Example 47, N-Hydroxy-N-[4-[3-(2-pyridinyloxy)phenyl]-3-butyn-2-yl]urea], CCC(C#Cc1cccc(Oc2ccccn2)c1)N(O)C(N)=O (stereo not drawn) [Example 64, N-Hydroxy-N-[5-[3-(2-pyridinyloxy)phenyl]-4-pentyn-3-yl]urea] is 1.5-fold lower in IC50: 900 nM for the first, 600 nM for the second. The second is the more potent here.

CNC(=O)N(O)C(C)C#Cc1ccc(Cl)cc1 (stereo not drawn) [Example 20, N-Hydroxy-N-[4-(4-chlorophenyl)-3-butyn-2-yl]-N'-methylurea] and CNC(=O)N(O)C(C)C#Cc1ccc(C)cc1 (stereo not drawn) [Example 29, N-Hydroxy-N-[4-(4-methylphenyl)-3-butyn-2-yl]-N'-methylurea] are within 1.5-fold of each other in IC50: 1100 nM for the first, 800 nM for the second.

Going from CC(C#CCc1ccccc1)N(O)C(N)=O (stereo not drawn) [Example 30, N-Hydroxy-N-(5-phenyl-3-pentyn-2-yl)urea] to CC(C#CCN(C)Cc1ccccc1)N(O)C(N)=O (stereo not drawn) [Example 5, N-Hydroxy-N-[5-[(N-methyl-N-benzyl)amino]-3-pentyn,2-yl]urea], the IC50 rises from 2100 nM to 3600 nM (1.7-fold). The first is the more potent here.

CC(C#Cc1cccc(Oc2ccc(Cl)cc2)c1)N(O)C(N)=O (stereo not drawn) [Example 42, N-Hydroxy-N-[4-[3-(4-chlorophenoxy)phenyl]-3-butyn-2-yl]urea] and Cc1ccc(Oc2cccc(C#CC(C)N(O)C(N)=O)c2)cc1 (stereo not drawn) [Example 35, N-Hydroxy-N-[4-[3-(4-methylphenoxy)phenyl]-3-butyn-2-yl]urea] are within 1.5-fold of each other in IC50: 500 nM for the first, 400 nM for the second.

Going from CC(C#Cc1ccc(OCc2ccccc2)cc1)N(O)C(N)=O (stereo not drawn) [Example 7, N-Hydroxy-N-[4-(4-benzyloxyphenyl)-3-butyn-2-yl]urea] to CC(C#Cc1cccc(OCc2ccccc2)c1)N(O)C(N)=O (stereo not drawn) [Example 6, N-Hydroxy-N-[4-(3-benzyloxyphenyl)-3-butyn-2-yl]urea], the IC50 rises from 130 nM to 200 nM (1.5-fold).

First: NC(=O)N(O)CC#CCOc1ccccc1 [Example 41, N-Hydroxy-N-(4-phenoxy-2-butynyl)urea]
Second: CC(C#CCOc1cccc(Oc2ccccc2)c1)N(O)C(N)=O (stereo not drawn) [Example 45, N-Hydroxy-N-[5-(3-phenoxyphenoxy)-3-pentyn-2-yl]urea]
The IC50 of the first is 18-fold higher: 3500 nM for the first, 200 nM for the second.

Compared with COc1ccc(Oc2cccc(C#CC(C)N(O)C(N)=O)c2)cc1 (stereo not drawn) [Example 40, N-Hydroxy-N-[4-[3-(4-methoxyphenoxy)phenyl]-3-butyn-2-yl]urea], CC(C#Cc1cccc(Oc2ccccc2)c1)N(O)C(N)=O (stereo not drawn) [Example 3, N-Hydroxy-N-[4-(3-phenoxyphenyl)-3-butyn-2-yl]urea] is 5-fold lower in IC50: 500 nM for the first, 100 nM for the second. The second is the more potent here.

Going from CC(C#CC1=CCCCC1)N(O)C(N)=O (stereo not drawn) [Example 9, N-Hydroxy-N-(4-cyclohexen-1-yl-3butyn-2-yl)urea] to CC(C#Cc1ccco1)N(O)C(N)=O (stereo not drawn) [Example 31, N-Hydroxy-N-[4-(2-furyl)-3-butyn-2-yl]urea], the IC50 rises from 1200 nM to 6200 nM (5.2-fold).

Going from COc1ccc(C#CC(C)N(O)C(N)=O)cc1 (stereo not drawn) [Example 37, N-Hydroxy-N-[4-(4-methoxyphenyl)-3-butyn-2-yl]urea] to CC(C#Cc1ccc(Oc2ccccc2)cc1)N(O)C(N)=O (stereo not drawn) [Example 12, N-Hydroxy-N[4-(4-phenoxyphenyl)-3-butyn-2-yl]urea], the IC50 falls from 2000 nM to 300 nM (6.7-fold).

CNC(=O)N(O)C(C)C#Cc1ccc(C(C)C)cc1 (stereo not drawn) [Example 23, N-Hydroxy-N-[4-[4-(1-methylethyl)phenyl]-3-butyn-2-yl]-N'-methylurea] and CNC(=O)N(O)C(C)C#Cc1ccc(Br)cc1 (stereo not drawn) [Example 18, N-Hydroxy-N-[4-(4-bromophenyl)-3-butyn-2-yl]-N'-methylurea] are the same in IC50: 500 nM for the first, 500 nM for the second.

Going from CCCCc1ccc(C#CC(C)N(O)C(N)=O)s1 (stereo not drawn) [Example 13, N-Hydroxy-N-[4-(5-butylthien-2-yl)-3-butyn-2-yl]urea] to Cc1ccc(C#CC(C)N(O)C(N)=O)s1 (stereo not drawn) [Example 14, N-Hydroxy-N-[4-(5,methylthien-2-yl)-3-butyn-2-y]urea], the IC50 rises from 300 nM to 1700 nM (5.7-fold).

Going from CNC(=O)N(O)C(C)C#Cc1cccc(Oc2ccccn2)c1 (stereo not drawn) [Example 56, N-Hydroxy-N-[4-[3-(2-pyridinyloxy)phenyl]-3-butyn-2-yl]-N'-methylurea] to CC(C#CCCc1cccc(Oc2ccccn2)c1)N(O)C(N)=O (stereo not drawn) [Example 55, N-Hydroxy-N-[6-[3-(2-pyridinyloxy)phenyl]-3-hexyn-2-yl,1]-urea], the IC50 rises from 300 nM to 900 nM (3-fold). The first is the more potent here.

Going from CC(C#Cc1cc2ccccc2s1)N(O)C(N)=O (stereo not drawn) [Example 16, N-Hydroxy-N-[4-(2-benzo[b]thienyl)-3-butyn-2-yl]urea] to CNC(=O)N(O)C(C)C#Cc1ccccc1 (stereo not drawn) [Example 15, N-Hydroxy-N-(4-phenyl-3-butyn-2-yl)-N'-methylurea], the IC50 rises from 100 nM to 3300 nM (33-fold). The first is the more potent here.

For COc1cccc(Oc2cccc(C#CC(C)N(O)C(N)=O)c2)n1 (stereo not drawn) [Example 65, N-Hydroxy-N-[4-[3-(6-methoxypyridin-2-yloxy)phenyl]-3-butyn-2-yl]urea], the IC50 was 200 nM.

These compounds were tested on Leukotrienes (biosynthesis) (assay: Inhibition of leukotriene biosynthesis in vivo after oral administration, rat peritoneal anaphylaxis model). Details: 1 h, Oral Dose at 30 μmol/kg, gavage one hour prior to antigen challenge, read-out: Percent Inhibition of Leukotrienes.
Experimental: Inhibition of the biosynthesis of leuktrienes in vivo after oral administration of compound was determined using a rat peritoneal anaphylaxis model in a similar manner as that described by Young and coworkers (Young, P. R.; Dyer, R. D.; Carter, G. W. Fed. Proc., Fed. Am. Soc. Exp. Biol. 1985, 44, 1185). In this model rats were injected intraperitoneally (ip) with rabbit antibody to bovine serum albumin (BSA) and three hours later injected ip with BSA to induce an antgen-antibody response. Rats were sacrificed 15 minutes after this challenge and the peritoneal fluids were collected and analyzed for leukotriene levels. Test compounds were administered by gavage one hour prior to the antigen challenge. Percent inhibition values were determined by comparing the treatment group to the mean of the control group.

Going from NC(=O)N(O)CC#Cc1cccc(Oc2cccnc2)c1 [Example 54, N-Hydroxy-N-[3-[3-(3-pyridinyloxy)phenyl]-2-propyn-1-yl]urea] to NC(=O)N(O)CC#Cc1cccc(Oc2ccccn2)c1 [Example 63, N-Hydoxy-N-[3-[3-(2-pyridinyloxy)phenyl]-2-propyn-1-yl]urea], the inhibition in vivo at 30 µmol/kg rises from 78% to 85%.

First: CC(C#Cc1ccc(Oc2ccccc2)o1)N(O)C(N)=O (stereo not drawn) [Example 58, N-hydroxy-N-[4-(5-phenoxy-2-furyl)-3-butyn-2-yl]urea]
Second: CC(C#Cc1ccc(Sc2ccccc2)o1)N(O)C(N)=O (stereo not drawn) [Example 59, N-hydroxy-N-[4-(5-thiophenoxy-2-furyl)-3-butyn-2-yl]urea]
The inhibition in vivo at 30 µmol/kg of the first is higher: 83% for the first, 62% for the second.

First: CCC(C#Cc1cccc(Oc2ccccn2)c1)N(O)C(N)=O (stereo not drawn) [Example 64, N-Hydroxy-N-[5-[3-(2-pyridinyloxy)phenyl]-4-pentyn-3-yl]urea]
Second: NC(=O)N(O)CC#Cc1ccc(Oc2ccc(F)cc2)o1 [Example 60, N-hydroxy-N-{3-[5-(4-fluorophenoxy)-2-furyl]-2-propynyl}urea]
The inhibition in vivo at 30 µmol/kg of the first is higher: 78% for the first, 70% for the second.

Same assay, conditions: 1 h, Oral Dose at 100 μmol/kg, gavage one hour prior to antigen challenge, read-out: Percent Inhibition of Leukotrienes

Going from CC(C#Cc1cccc(Oc2ccccn2)c1)N(O)C(N)=O (stereo not drawn) [Example 47, N-Hydroxy-N-[4-[3-(2-pyridinyloxy)phenyl]-3-butyn-2-yl]urea] to CC(C#Cc1cccc(Oc2ccc(Cl)cc2)c1)N(O)C(N)=O (stereo not drawn) [Example 42, N-Hydroxy-N-[4-[3-(4-chlorophenoxy)phenyl]-3-butyn-2-yl]urea], the inhibition in vivo at 100 µmol/kg falls from 99% to 66%.

Compared with CNC(=O)N(O)C(C)C#Cc1ccc(Cl)cc1 (stereo not drawn) [Example 20, N-Hydroxy-N-[4-(4-chlorophenyl)-3-butyn-2-yl]-N'-methylurea], CC(C#CCc1ccccc1)N(O)C(N)=O (stereo not drawn) [Example 30, N-Hydroxy-N-(5-phenyl-3-pentyn-2-yl)urea] is higher in inhibition in vivo at 100 µmol/kg: 89% for the first, 95% for the second.

First: CC(C#CCCc1ccccc1)N(O)C(N)=O (stereo not drawn) [Example 26, N-Hydroxy-N-(6-phenyl-3-hexyn-2-yl)urea]
Second: NC(=O)N(O)CC#CCOc1cccc(Oc2ccccc2)c1 [Example 38, N-Hydroxy-N-[4-(3-phenoxyphenoxy)-2-butynyl]urea]
The inhibition in vivo at 100 µmol/kg of the first is lower: 78% for the first, 100% for the second.

NC(=O)N(O)CC#CCOc1cccc(Oc2cccnc2)c1 [Example 49] was tested, and the inhibition in vivo at 100 µmol/kg was 98%.

Same assay, conditions: 1 h, Oral Dose at 200 μmol/kg, gavage one hour prior to antigen challenge, read-out: Percent Inhibition of Leukotrienes

First: COc1ccc2cc(C#CC(C)N(O)C(N)=O)ccc2c1 (stereo not drawn) [Example 2, N-Hydroxy-N-[4-(6-methoxynaphth-2-yl)-3-butyn-2-yl]urea]
Second: CC(C#CCOc1ccccc1)N(O)C(N)=O (stereo not drawn) [Example 10, N-Hydroxy-N-(5-phenoxy-3-pentyn-2-yl)urea]
The inhibition in vivo at 200 µmol/kg of the first is lower: 66% for the first, 99% for the second.
